The values that follow come from US12527764B2, “Methods and compositions for treating androgen receptor deficient, androgen receptor low, and castration-resistant prostate cancers” (FRED HUTCHINSON CANCER CENTER, priority 2019, dated 2026).

Molecules are shown by their SMILES.

For data set [1], the system named is AR+ parental APIPC xenograft. The data set is described as follows: AR+ parental APIPC xenograft preclinical trial. It is filed as in vivo, intact NOD-scid IL2Rgamma^null mice. To be noted: uncastrated mice, 15 mg/kg intraperitoneal, versus vehicle. The method, then: (§1) 1×10^6 AR+ parental and AR− APIPC cells were resuspended 1:1 in Matrigel (Corning): RPMI-1640 (Gibco) and subcutaneously injected into the flanks of intact or castrate NOD-scid IL2Rgamma^null mice respectively. 1×1×1 mm^3 of LuCaP 173.2 tumor chunks were implanted into the flank of castrate mice. Tumor volume was calculated using the formula (L(W^2))/2, where L is the length of the tumor and W the width. When tumors reached 100 mm^3, animals were randomized to receive intraperitoneal injections of 15 mg/kg 4E1RCat (Selleckchem) or vehicle (5.2% PEG400 and 5.2% TWEEN80 in ddH2O), Monday-Friday.

The next data set relates to AR− APIPC xenograft. The data set is described as follows: AR− APIPC xenograft preclinical trial. It is filed as in vivo. The following applies: 15 mg/kg intraperitoneal. The method, then: as §1
In data set [2] the test system is AR-null non-neuroendocrine LuCaP 173.2 PDX. In words: LuCaP 173.2 PDX preclinical trial. It is filed as in vivo. The following applies: 15 mg/kg intraperitoneal. The method, then: as §1
Data set [3] deals with T1, eIF4E-eIF4G interaction (eIF4F complex) (Mus musculus, UniProt P63073).
T1 construct: Pten^L/L intact and castrate cells were treated with 50 μM 4E2RCat (MedChemExpress) and 20 μM 4EGI-1 (Selleckchem) for 24 hours; endogenous in cells; host or cells: primary intact and castrate Pten L/L mouse prostate cancer cells
The data set is described as follows: eIF4E-eIF4G proximity ligation assay in intact and castrate Pten^L/L cells. The following applies: 50 μM, 24 hours. It is filed as cell-based. The method, then: (§2) The in-situ proximity ligation assay (PLA) was optimized to detect eIF4E-eIF4G or eIF4E-4EBP1 interactions in intact/castrate Pten^L/L and castrate Pten^L;4ebp1^M FFPE tissue sections and adherent cells. FFPE sections were deparaffinized, rehydrated, and subjected to antigen retrieval in a decloaking chamber at 95° C. for 30 min in Tris-based antigen unmasking solution, pH 9 (Vector). After 30 min blocking, primary antibody incubation was performed at 4° C. overnight: eIF4E (SCBT), eIF4G (CST), and 4EBP1 (CST).
(§3) Adherent cells were grown on coverslips placed in 6-well plates until 60-70% confluent. […] Permeabilized cells were washed using 1× wash buffer followed by 1 hour blocking in a humidity chamber at 37° C. Next, cells were incubated with primary antibodies: eIF4G (CST) and eIF4E (BD Biosciences) for 2 hours at room temperature.
(§4) After incubation with primary antibody, both FFPE tissues and adherent cells were subjected to incubation with secondary antibodies conjugated to oligonucleotides (PLA plus/minus probes) for 1 hour at 37° C. The two hybridized oligonucleotides were joined in a closed circle using a ligase at 37° C. for 30 min. The DNA was then amplified with rolling circle amplification, and detection of the amplicons was carried out using the Brightfield detection kit (Sigma).

In data set [4] the test system is primary castrate (DHT−) Pten^L/L cells. The data set is described as follows: IncuCyte in vitro proliferation assay, primary castrate Pten^L/L cells. It is filed as cell-based, mouse. To be noted: 48 hours, same drug concentrations as in intact cells. The method, then: (§5) Human APIPC cell lines were provided by P.S.N., and grown as previously described (11). PC3-4EBP1^M, VCaP, 22Rv1, C4-2, and LNCaP cells were cultured in RPMI-1640 with 10% FBS or phenol-red free RPMI with 10% charcoal stripped FBS (Gemini). Intact/castrate […] mouse prostates were harvested at 16 weeks of age, micro-dissected, and minced using a scalpel. Tissue chunks were incubated in 5 mg/ml collagenase II (Gibco) in Dulbecco's modified Eagle's medium for 1 hour at 37° C., followed by 5 min further digestion with TrypLE (Thermo Fisher). The dissociated cells were passed through a 40 µm nylon mesh (Falcon) to obtain single cells. Twenty thousand cells were embedded in 50 μl of Matrigel (Corning) and plated on 24-well ultra-low attachment plates (Corning). Medium components include the following: Advanced Dulbecco's Modified Eagle Medium containing B-27 supplement (Gibco), 1.25 mM N-Acetyl-L-cysteine (Sigma), 50 ng/ml EGF (Peprotech), 200 nM A83-01 (Tocris Bioscience), 500 ng/ml R-spondin1 (conditioned medium and R-spondin1 expressing plasmid provided by Y.C.), 10 μM Y-27632 (Sigma), and 100 ng/ml Noggin (Peprotech). […] Established organoids were passaged as 3D organoids or cultured as 2D cells. […] Cell proliferation was monitored by analyzing the occupied area (% confluence) of cell images over time. […]

In data set [5] the test system is AR− APIPC prostate cancer cells. The data set is described as follows: IncuCyte in vitro proliferation assay, AR+ parental versus AR− APIPC prostate cancer cells. The format is cell-based, human. The following applies: AR-null APIPC cells compared with parental (AR+) cells, 48 hours. The method, then: as §5
Data set [6] has as its target eIF4E-eIF4G interaction (eIF4F complex) (Homo sapiens, UniProt P06730). In words: eIF4E-eIF4G proximity ligation assay in AR+ parental and AR− APIPC cells. It is filed as cell-based. The following applies: 10 μM, 24 hours. The method, then:
as §2, §3, §4

Data set [7] relates to primary intact (DHT+) Pten^L/L cells. The data set is described as follows: IncuCyte in vitro proliferation assay, primary intact Pten^L/L cells. The format is cell-based, mouse. The following applies: 48 hours, same drug concentrations as in castrate cells. The method, then:
as §5

Data set [8] has as its system de novo protein synthesis. The following applies: castrate Pten^L/L primary prostate cancer cells, 1 nM DHT add back, 48 hours.
Experimental: FIG. 9D is a representative western blot of puromycin incorporation with or without addition of 1 nM DHT for 48 hours, which increases AR signaling, in castrate Pten^L/L primary prostate cancer cells (representative of 4 biological replicates).
Cells were lysed for 30 min on ice in lysis buffer containing 150 mM NaCl, 50 mM Tris, 4 mM KCl, 1 mM MgCl2 1 mM Na3VO4 10% glycerol, 1% Nonidet P-40, supplemented with phosphatase and protease inhibitor cocktails (Roche). Lysates were cleared by centrifugation at 12000 rpm for 15 min at 4° C. Supernatants were removed and assayed for protein concentration using the Protein Assay Dye Reagent (Bio-Rad). Equal amounts of proteins were subjected to SDS-PAGE and transferred to PVDF membranes (Bio-Rad). Membranes were blocked with 5% non-fat milk in PBS-Tween and were subsequently incubated with the following antibodies at 4° C. overnight: AR (N-terminus, Abcam), AR (C-terminus, SCBT), AR (GeneTex), p-AKT (S473, CST), p-AKT (T308, CST), eIF4E (BD Biosciences), eIF4A (CST), eIF4G (CST), 4EBP1 (CST), p-4EBP1 (Thr37/46, CST), KLF5 (Abcam), DENR (GeneTex), CACUL1 (GeneTex) FLAG (Sigma), RPS15 (Abcam), PTEN (CST), synaptophysin (CST), chromogranin A (Abcam). […] Signal detection was performed using the ChemiDoc Touch Imaging System (Bio-Rad) or standard film, and quantified using ImageJ.
Data set [9] has as its system 4ebp1 transcript expression. The data set is described as follows: 4ebp1 transcript expression in castrate Pten^L/L cells under enzalutamide. The format is cell-based, mouse. The following applies: further inhibition of AR. The method, then: Total RNA was isolated using RNeasy Plus Mini Kit (Qiagen) and reverse-transcribed with iScript Reverse Transcription Supermix (Bio-Rad). cDNA was diluted 1:1 with water. Quantitative PCR was performed with 1 μl cDNA using SsoAdvanced SYBR Supermix (Bio-Rad) with primer sets specific for Ar, 4ebp1, Cacul1, Denr, Klf5, Rps15, Gapdh, luciferase, RPS19, and actin (Table 3). Normalized mRNA expression was calculated using the comparative Ct method.

The mark [10] stands for this setting: castrated mice, Monday-Friday, versus vehicle.

Sequence of eIF4E-eIF4G interaction (eIF4F complex) (Homo sapiens, UniProt P06730) (P06730 whole entry, one chain of several): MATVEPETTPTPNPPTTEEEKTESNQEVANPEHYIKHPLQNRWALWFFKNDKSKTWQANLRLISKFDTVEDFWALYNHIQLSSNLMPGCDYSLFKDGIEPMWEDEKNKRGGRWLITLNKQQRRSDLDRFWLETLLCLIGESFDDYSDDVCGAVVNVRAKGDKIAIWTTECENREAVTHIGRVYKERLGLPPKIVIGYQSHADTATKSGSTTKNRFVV
T1 sequence (P63073 whole entry, one chain of several): as the sequence (P06730 whole entry, one chain of several) above, with P12T, T16P, T17A, E174D counted along it

With `O=C(O)c1ccc(N2C(=O)/C(=C/c3ccc(-c4ccc([N+](=O)[O-])cc4)o3)C=C2c2ccccc2)cc1` [4E1RCat, 4-[(3E)-3-[[5-(4-nitrophenyl)furan-2-yl]methylidene]-2-oxo-5-phenylpyrrol-1-yl]benzoic acid], the “tumor growth (sensitivity of the model)” value in [1] is recorded as “completely insensitive”. Further, the “toxicity to mice (body weight)” value (in the data set with AR− APIPC xenograft (castrated NSG mice); in data set [2] (castrated NSG mice)) was “without overt toxicity” throughout. Besides, the survival result (in the data set on AR− APIPC xenograft (setting [10]); in [2] (setting [10])) was “improvement” each time. Besides, the tumor growth entry (in the data set on AR− APIPC xenograft (setting [10]); in [2] (setting [10])) was “marked decrease” in each case.

As for `O=C(O)c1cc(-c2ccc(/C=C3/SC(=S)N(Cc4ccccc4)C3=O)o2)ccc1Cl` [4E2RCat, 5-[5-[(E)-(3-Benzyl-4-oxo-2-sulfanylidene-1,3-thiazolidin-5-ylidene)methyl]furan-2-yl]-2-chlorobenzoic acid], the “eIF4F complex formation (proximity ligation assay)” value in data set [3] and in data set [6] was “disrupt eIF4F complex formation” in each case. For the same compound, the “effect on cell proliferation” value was “profound changes” in [4] and “negligible effects” in data set [7]. The “sensitivity of proliferation to eIF4E-eIF4G disruption” value in data set [5] is recorded as “more sensitive”.

On to `O=C(O)C(Cc1ccccc1[N+](=O)[O-])=NNc1nc(-c2ccc(Cl)c(Cl)c2)cs1` [4EGI-1, α-[2-[4-(3,4-Dichlorophenyl)-2-thiazolyl]-hydrazinylidene]-2-nitrobenzene-propanoic acid], for which the “effect on cell proliferation” value is “profound changes” in [4] and “negligible effects” in data set [7]. In addition, the “sensitivity of proliferation to eIF4E-eIF4G disruption” value in data set [5] was “more sensitive”.

In the case of `C[C@]12CCC(=O)C[C@@H]1CC[C@@H]1[C@@H]2CC[C@]2(C)[C@@H](O)CC[C@@H]12` [DHT, dihydrotestosterone], the “de novo protein synthesis (puromycin incorporation)” value in data set [8] is listed as “decreases”.

With `CNC(=O)c1ccc(N2C(=S)N(c3ccc(C#N)c(C(F)(F)F)c3)C(=O)C2(C)C)cc1F` [enzalutamide], the 4ebp1 transcript expression result in [9] was “does not impact”.
